Consider 14 compounds from US10953027B2, “Active agents and methods of their use for the treatment of metabolic disorders and nonalcoholic fatty liver disease” (Flagship Pioneering Innovations V, Inc., priority 2018, dated 2021).

Common to all, as to format: in vitro ADME
The nature of data set [1]: Assay 1. Stability in Simulated Gastric Fluid (SGF). To be noted: 1 μM, 37° C., SGF pH 1.6 with pepsin. In outline: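 Simulated gastric fluid, prepared fresh as NaCl buffer at pH 1.6 with 0.1 mg/mL pepsin and FaSSIF powder, received test compound to 1 μM final and was held at 37 °C. LC/MS of acetonitrile-quenched samples, taken immediately and then periodically, gave degradation rates.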

Data set [2] can be described thus: Assay 3. Fecal Incubation Stability. To be noted: 1 or 10 μM, human fecal slurry, anaerobic. On the procedure:
Assay 3. Fecal Incubation Stability. This assay was used to assess the stability of an acylated active agent in a large intestine. All experiments were performed in an anaerobic chamber containing 90% nitrogen, 5% hydrogen and 5% carbon dioxide. Human fecal matter in a slurry (15% WV) is added to 96 well plates containing YCFA media or other suitable media (1.6 mL). Compounds were added to each individual well to reach a final analyte concentration of 1 or 10 μM, and the material was mixed by pipetting. At set time points a sample was removed, quenched with acetonitrile, and analyzed by LC/MS.

Data set [3] can be described thus: Assay 2. Stability in Simulated Intestinal Fluid (SIF). To be noted: 1 μM, 37° C., SIF pH 6.7 with pancreatin. In short, it runs like this: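 Degradation rate measured by LC/MS after acetonitrile quench of timed aliquots, starting at T0. Test compound 1 μM in simulated intestinal fluid (pH 6.7 phosphate buffer, FaSSIF powder, pancreatin), shaken at 37 °C.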

Take `CCC(=O)O[C@@H]1[C@@H](OC(=O)CC)[C@@H](OC(=O)Cc2c[nH]c3ccccc23)OC[C@H]1OC(=O)CC` [Compound 149, (2R,3R,4S,5R)-2-{[2-(1H-indol-3-yl)acetyl]oxy}-4,5-bis(propanoyloxy)oxan-3-yl Propanoate]: the “Assay 1 (SGF) (% Remaining @ 1 hours)” value in data set [1] is “C (C: >75% of the tested compound remaining)”. The “Assay 3 (% Remaining at 24 h)” value in data set [2] is on record as “A (A: <25% of the tested compound remaining)”. The “Assay 2 (SIF) (% @ Remaining 4 hours)” value in data set [3] is “A (A: <25% of the tested compound remaining)”.
As to `CCC(=O)O[C@H]1[C@H](OC(=O)Cc2c[nH]c3ccccc23)OC[C@@H](OC(=O)CC)[C@H]1OC(=O)CC` [Compound 138, (2S,3R,4R,5R)-2-{[2-(1H-indol-3-yl)acetyl]oxy}-4,5-bis(propanoyloxy)oxan-3-yl Propanoate], in data set [1], the “Assay 1 (SGF) (% Remaining @ 1 hours)” value was “C (C: >75% of the tested compound remaining)”. The “Assay 3 (% Remaining at 24 h)” value in data set [2] is “A (A: <25% of the tested compound remaining)”. The “Assay 2 (SIF) (% @ Remaining 4 hours)” value in data set [3] was “A (A: <25% of the tested compound remaining)”.
Consider `CCCC(=O)Oc1cc(OC(=O)CCC)c2c(c1)O[C@H](c1ccc(OC(=O)CCC)c(OC(=O)CCC)c1)[C@H](OC(=O)CCC)C2` [Compound 235, (2R,3R)-2-[3,4-bis(butanoyloxy)phenyl]-5,7-bis(butanoyloxy)-3,4-dihydro-2H-1-benzopyran-3-yl Butanoate], for which, in data set [1], the “Assay 1 (SGF) (% Remaining @ 1 hours)” value was “C (C: >75% of the tested compound remaining)”. The “Assay 3 (% Remaining at 24 h)” value in data set [2] was “A (A: <25% of the tested compound remaining)”. For the same compound, in data set [3], the “Assay 2 (SIF) (% @ Remaining 4 hours)” value is recorded as “A (A: <25% of the tested compound remaining)”.
On to `CO[C@H]1OC[C@@H](OC(C)=O)[C@H](OC(C)=O)[C@H]1OC(C)=O` [Compound 46, (2S,3R,4S,5R)-2-methoxytetrahydro-2H-pyran-3,4,5-triyl Triacetate], for which, in data set [1], the “Assay 1 (SGF) (% Remaining @ 1 hours)” value is reported as “C (C: >75% of the tested compound remaining)”. Moreover, in data set [2], the “Assay 3 (% Remaining at 24 h)” value is “B (B: 25-75% of the tested compound remaining)”. In addition, the “Assay 2 (SIF) (% @ Remaining 4 hours)” value in data set [3] was “B (B: 25-75% of the tested compound remaining)”.
Regarding `CCC(=O)O[C@H]1O[C@H](C(=O)O)[C@@H](OC(=O)CC)[C@H](OC(=O)CC)[C@H]1OC(=O)CC` [Compound 79, (2S,3S,4S,5R,6R)-3,4,5,6-tetrakis(propanoyloxy)oxane-2-carboxylic Acid], in data set [1], the “Assay 1 (SGF) (% Remaining @ 1 hours)” value is listed as “C (C: >75% of the tested compound remaining)”. Also, the “Assay 3 (% Remaining at 24 h)” value in data set [2] was “A (A: <25% of the tested compound remaining)”. Further, the “Assay 2 (SIF) (% @ Remaining 4 hours)” value in data set [3] is on record as “A (A: <25% of the tested compound remaining)”.
As to `CCC(=O)O[C@H]1[C@H](OC(=O)CC)[C@@H](OC(=O)CCc2c[nH]c3ccccc23)O[C@@H](C)[C@H]1OC(=O)CC` [Compound 110, (2R,3S,4R,5R,6S)-6-methyl-3,4,5-tris(propanoyloxy)oxan-2-yl 3-(1H-indol-3-yl)propanoate], in data set [1], the “Assay 1 (SGF) (% Remaining @ 1 hours)” value is reported as “C (C: >75% of the tested compound remaining)”. Moreover, in data set [2], the “Assay 3 (% Remaining at 24 h)” value is recorded as “A (A: <25% of the tested compound remaining)”. In addition, the “Assay 2 (SIF) (% @ Remaining 4 hours)” value in data set [3] is “C (C: >75% of the tested compound remaining)”.
With `CC(=O)O[C@H]1O[C@H](C(=O)O)[C@@H](OC(C)=O)[C@H](OC(C)=O)[C@H]1OC(C)=O` [Compound 195, (2S,3S,4S,5R,6R)-3,4,5,6-tetraacetoxytetrahydro-2H-pyran-2-carboxylic Acid], in data set [1], the “Assay 1 (SGF) (% Remaining @ 1 hours)” value is on record as “C (C: >75% of the tested compound remaining)”. Moreover, the “Assay 3 (% Remaining at 24 h)” value in data set [2] was “B (B: 25-75% of the tested compound remaining)”. In addition, the “Assay 2 (SIF) (% @ Remaining 4 hours)” value in data set [3] was “C (C: >75% of the tested compound remaining)”.
On to `CCCC(=O)O[C@@H]1[C@@H](OC(=O)CCC)[C@H](Oc2ccccc2C(=O)O)OC[C@H]1OC(=O)CCC` [Compound 227, 2-{[(2S,3R,4S,5R)-3,4,5-tris(butanoyloxy)oxan-2-yl]oxy}benzoic Acid], for which the “Assay 1 (SGF) (% Remaining @ 1 hours)” value in data set [1] was “C (C: >75% of the tested compound remaining)”. Further, the “Assay 3 (% Remaining at 24 h)” value in data set [2] is “A (A: <25% of the tested compound remaining)”. Also, the “Assay 2 (SIF) (% @ Remaining 4 hours)” value in data set [3] is recorded as “A (A: <25% of the tested compound remaining)”.
On to `CCC(=O)OC1O[C@H](C(=O)O)[C@@H](OC(=O)CC)[C@H](OC(=O)CC)[C@H]1OC(=O)CC` (stereo in doubt) [Compound 80, (2S,3S,4S,5R,6S)-3,4,5,6-tetrakis(propanoyloxy)oxane-2-carboxylic Acid], for which, in data set [1], the “Assay 1 (SGF) (% Remaining @ 1 hours)” value is reported as “C (C: >75% of the tested compound remaining)”. Moreover, the “Assay 3 (% Remaining at 24 h)” value in data set [2] was “A (A: <25% of the tested compound remaining)”. For the same compound, in data set [3], the “Assay 2 (SIF) (% @ Remaining 4 hours)” value is listed as “A (A: <25% of the tested compound remaining)”.
In the case of `CCC(=O)O[C@@H]1[C@@H](OC(=O)CC)[C@@H](OC(=O)CC)C(O)O[C@H]1C` (stereo partly drawn) [Compound 145, (3R,4R,5S,6S)-2-hydroxy-6-methyl-4,5-bis(propanoyloxy)oxan-3-yl Propanoate], the “Assay 1 (SGF) (% Remaining @ 1 hours)” value in data set [1] is reported as “C (C: >75% of the tested compound remaining)”. In addition, the “Assay 3 (% Remaining at 24 h)” value in data set [2] is “C (C: >75% of the tested compound remaining)”. The “Assay 2 (SIF) (% @ Remaining 4 hours)” value in data set [3] is on record as “A (A: <25% of the tested compound remaining)”.
As to `CCC(=O)O[C@@H]1[C@@H](OC(=O)CC)[C@H](OC(=O)Cc2c[nH]c3ccccc23)OC[C@@H]1OC(=O)CC` [Compound 135, (3S,4S,5R,6S)-6-{[2-(1H-indol-3-yl)acetyl]oxy}-4,5-bis(propanoyloxy)oxan-3-yl Propanoate], in data set [1], the “Assay 1 (SGF) (% Remaining @ 1 hours)” value is on record as “C (C: >75% of the tested compound remaining)”. The “Assay 3 (% Remaining at 24 h)” value in data set [2] is given as “A (A: <25% of the tested compound remaining)”. Moreover, the “Assay 2 (SIF) (% @ Remaining 4 hours)” value in data set [3] is “A (A: <25% of the tested compound remaining)”.
Turning to `O=C(Cc1c[nH]c2ccccc12)O[C@H]1OC[C@H](OC(=O)Cc2c[nH]c3ccccc23)[C@H](OC(=O)Cc2c[nH]c3ccccc23)[C@H]1OC(=O)Cc1c[nH]c2ccccc12` [Compound 180, (2R,3R,4S,5S)-3,4,5-tris({[2-(1H-indol-3-yl)acetyl]oxy})oxan-2-yl 2-(1H-indol-3-yl)acetate], the “Assay 1 (SGF) (% Remaining @ 1 hours)” value in data set [1] is reported as “B (B: 25-75% of the tested compound remaining)”. Besides, in data set [2], the “Assay 3 (% Remaining at 24 h)” value is listed as “A (A: <25% of the tested compound remaining)”. In addition, the “Assay 2 (SIF) (% @ Remaining 4 hours)” value in data set [3] is recorded as “A (A: <25% of the tested compound remaining)”.
Turning to `CCCC(=O)O[C@@H]1[C@@H](OC(=O)CCC)[C@@H](OC(=O)CCc2c[nH]c3ccccc23)OC[C@H]1OC(=O)CCC` [Compound 128, (2R,3R,4S,5R)-4,5-bis(butanoyloxy)-2-{[3-(1H-indol-3-yl)propanoyl]oxy}oxan-3-yl Butanoate], the “Assay 1 (SGF) (% Remaining @ 1 hours)” value in data set [1] is listed as “C (C: >75% of the tested compound remaining)”. The “Assay 3 (% Remaining at 24 h)” value in data set [2] is “A (A: <25% of the tested compound remaining)”. In data set [3], the “Assay 2 (SIF) (% @ Remaining 4 hours)” value is “A (A: <25% of the tested compound remaining)”.
In the case of `CCC(=O)OC[C@H]1O[C@@H](OC(=O)Cc2c[nH]c3ccccc23)[C@H](OC(=O)CC)[C@@H](OC(=O)CC)[C@@H]1OC(=O)CC` [Compound 143, [(2R,3R,4S,5R,6S)-6-{[2-(1H-indol-3-yl)acetyl]oxy}-3,4,5-tris(propanoyloxy)oxan-2-yl]methyl Propanoate], the “Assay 1 (SGF) (% Remaining @ 1 hours)” value in data set [1] is recorded as “C (C: >75% of the tested compound remaining)”. Also, in data set [2], the “Assay 3 (% Remaining at 24 h)” value was “A (A: <25% of the tested compound remaining)”. Moreover, the “Assay 2 (SIF) (% @ Remaining 4 hours)” value in data set [3] is reported as “A (A: <25% of the tested compound remaining)”.
